According to PubChem BioAssay AID1963964 (Molecular Pharmacology Branch, DTP, NCI, 2024):

System: 997726-040-R-J2-PDC tumor spheroids, viability
Experiment: Anticancer human tumor 997726-040-R-J2-PDC patient-derived squamous cell lung carcinoma cell line growth inhibition [PI3K]
Conditions: spheroids with HUVEC and MSC; for IC50: curve of first compound; for viability, T/C: stronger effect = lower value; active = viability on the fitted dose curve at most 10% of control; inactive = the rest
Excerpt: Combinatorial screen of targeted agents with the PI3K inhibitors inavolisib, alpelisib, duvelisib, and copanlisib in multi-cell type tumor spheroids
A high-throughput screen of multi-cell type tumor spheroids was designed to identify active combinations of targeted small molecules and PI3K pathway inhibitors. Complex spheroids include a stromal component modeled by human endothelial cells (HUVEC) and fibroblasts modeled by human mesenchymal stem cells (MSCs). The concentration ranges selected for each drug and investigational agent were based upon clinically achievable concentrations if the clinical Cmax of the agent was known.
Compounds. The drugs and investigational agents: inavolisib (NSC800729), alpelisib (NSC765974), duvelisib (NSC772469), copanlisib (NSC816437), ipatasertib (NSC767898), afuresertib (NSC778305), talazoparib (NSC767125), sapanisertib (NSC764658), selumetinib (NSC741078), tovorafenib (DAY101, NSC766906), vemurafenib (NSC761431), ravoxertinib (NSC781343), sotorasib (NSC818433), MRTX1133 (NSC 836407), abemaciclib (NSC 768073), palbociclib (NSC758247), venetoclax (NSC 766270), SY5609 (NSC837396), enzalutamide (NSC755605), and darolutamide (NSC825331), were obtained from the National Cancer Institute (NCI) Developmental Therapeutics Program Chemical Repository. The FDA-approved anticancer drug set is available from the NCI Developmental Therapeutics Program. […] The stock solutions were prepared in dimethyl sulfoxide (DMSO, Sigma-Aldrich, St. Louis, MO, cat. D2650) at 800-fold the tested concentration and stored at -70 degrees C prior to their use. All drugs and investigational agents were tested over a range starting from a high concentration at or near the clinical Cmax and decreasing in half-log increments. If the clinical Cmax for an agent had not been determined, the highest concentration tested was 10 microM.
Cell Culture. All cells were maintained in an incubator at 37 degrees C and 5% CO2 with 95% humidity. The PDC lines were cultured according to standard operating procedures established by the NCI PDMR (https://pdmr.cancer.gov/sops/default.htm). All PDCs were thawed and cultured in Matrigel-coated flasks prepared with a working solution of 1X Ham's F-12 nutrient mix, without supplementation (Invitrogen, Waltham, MA, cat. 11765054), 100 U/mL penicillin-streptomycin (Invitrogen, cat. 15140122), and 2.5% Matrigel (Corning Inc., Corning, NY, cat. 354248) for the first three passages. The 354836-022-R-J1-PDC, 475296-252-R-J1-PDC, and 997726-040-R-J2-PDC lines were cultured in 6A media, which includes advanced DMEM/F-12 (Thermo Fisher Scientific, cat. 12634028), 10 mM HEPES (Thermo Fisher Scientific, cat. 15630080), 1X GlutaMAX supplement (Thermo Fisher Scientific, cat. 35050061), 0.1 mg/mL primocin (InvivoGen, San Diego, CA, cat. ant-pm-2), 10% defined fetal bovine serum, heat inactivated (HyClone Laboratories Inc., Logan, UT, cat. SH30070.03HI), 50% L-WRN conditioned media (ATCC, cat. CRL-3276), 1.25 mM N-Acetyl-L-cysteine (Sigma-Aldrich, cat. A9165), 10 mM nicotinamide (Sigma-Aldrich, cat. N0636), 1X B-27 supplement (Thermo Fisher Scientific, cat. 17504044), 1X N-2 supplement (Thermo Fisher Scientific, cat. 17502048), and 10 microM Y-27632 dihydrochloride (Tocris Bioscience, Bristol, United Kingdom, cat. 1254). The 624824-186-R-J2-PDC line was cultured in 6C/Colon 1B media, which includes all 6A media components plus 50 ng/mL human EGF recombinant protein (Thermo Fisher Scientific, cat. PHG0311). […]

[1] = second compound 0.00316 µM, first compound 0.0316 µM
[2] = second compound 0.00316 µM, first compound 0.1 µM
[3] = second compound 0.01 µM, first compound 0.0316 µM
[4] = second compound 0.01 µM, first compound 0.1 µM
[5] = second compound 0.0316 µM, first compound 0.0316 µM
[6] = second compound 0.0316 µM, first compound 0.1 µM
[7] = second compound 0.1 µM, first compound 0.0316 µM
[8] = second compound 0.1 µM, first compound 0.1 µM
[9] = second compound 0.316 µM, first compound 0.0316 µM
[10] = second compound 0.316 µM, first compound 0.1 µM
[11] = second compound 1 µM, first compound 0.0316 µM
[12] = second compound 1 µM, first compound 0.1 µM
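Note: spheroids exposed to compounds for seven days before readout.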

CC(=O)c1c(C)c2cnc(Nc3ccc(N4CCNCC4)cn3)nc2n(C2CCCC2)c1=O + CC(Nc1ccc2c(c1)OCCn1cc(N3C(=O)OCC3C(F)F)nc1-2)C(N)=O
< 0.316 nM: IC50 (second compound 0.1 µM) | IC50 (second compound 0.316 µM) | IC50 (second compound 1 µM)
> 100 nM: IC50 (second compound 0.00316 µM) | IC50 (second compound 0.01 µM)
inactive: viability, T/C (second compound 0.00316 µM, first compound 0.000316 µM) 94.9% | viability, T/C (second compound 0.00316 µM, first compound 0.001 µM) 84.1% | viability, T/C (second compound 0.00316 µM, first compound 0.00316 µM) 83.1% | viability, T/C (second compound 0.00316 µM, first compound 0.01 µM) 81.9% | viability, T/C [1] 84.9% | viability, T/C [2] 55.8% | viability, T/C (second compound 0.01 µM, first compound 0.000316 µM) 84.7% | viability, T/C (second compound 0.01 µM, first compound 0.001 µM) 80.7% | viability, T/C (second compound 0.01 µM, first compound 0.00316 µM) 74.1% | viability, T/C (second compound 0.01 µM, first compound 0.01 µM) 76.4% | viability, T/C [3] 65.8% | viability, T/C [4] 53.9% | viability, T/C (second compound 0.0316 µM, first compound 0.000316 µM) 62% | viability, T/C (second compound 0.0316 µM, first compound 0.001 µM) 62.1% | viability, T/C (second compound 0.0316 µM, first compound 0.00316 µM) 63.9% | viability, T/C (second compound 0.0316 µM, first compound 0.01 µM) 53.9% | viability, T/C [5] 52.5% | viability, T/C [6] 45% | viability, T/C (second compound 0.1 µM, first compound 0.000316 µM) 43.5% | viability, T/C (second compound 0.1 µM, first compound 0.001 µM) 45.4% | viability, T/C (second compound 0.1 µM, first compound 0.00316 µM) 46.5% | viability, T/C (second compound 0.1 µM, first compound 0.01 µM) 48.9% | viability, T/C [7] 40.5% | viability, T/C [8] 29.5% | viability, T/C (second compound 0.316 µM, first compound 0.000316 µM) 38.4% | viability, T/C (second compound 0.316 µM, first compound 0.001 µM) 32.7% | viability, T/C (second compound 0.316 µM, first compound 0.00316 µM) 39.3% | viability, T/C (second compound 0.316 µM, first compound 0.01 µM) 30.1% | viability, T/C [9] 24.4% | viability, T/C [10] 22.9% | viability, T/C (second compound 1 µM, first compound 0.000316 µM) 26.3% | viability, T/C (second compound 1 µM, first compound 0.001 µM) 33.2% | viability, T/C (second compound 1 µM, first compound 0.00316 µM) 27.5% | viability, T/C (second compound 1 µM, first compound 0.01 µM) 28.1% | viability, T/C [11] 22.2% | viability, T/C [12] 15.3%
44.5 nM: IC50 (second compound 0.0316 µM)

CNC(=O)c1ccc(N2C(=S)N(c3ccc(C#N)c(C(F)(F)F)c3)C(=O)C2(C)C)cc1F + CC(Nc1ccc2c(c1)OCCn1cc(N3C(=O)OCC3C(F)F)nc1-2)C(N)=O
inactive: viability, T/C [1] 82.6% | viability, T/C [2] 86.7% | viability, T/C (second compound 0.00316 µM, first compound 0.316 µM) 89% | viability, T/C (second compound 0.00316 µM, first compound 1 µM) 88.2% | viability, T/C (second compound 0.00316 µM, first compound 3.16 µM) 94.8% | viability, T/C (second compound 0.00316 µM, first compound 10 µM) 83.5% | viability, T/C [3] 74.9% | viability, T/C [4] 71.5% | viability, T/C (second compound 0.01 µM, first compound 0.316 µM) 79.6% | viability, T/C (second compound 0.01 µM, first compound 1 µM) 72.8% | viability, T/C (second compound 0.01 µM, first compound 3.16 µM) 78.8% | viability, T/C (second compound 0.01 µM, first compound 10 µM) 72.3% | viability, T/C [5] 59.5% | viability, T/C [6] 68.3% | viability, T/C (second compound 0.0316 µM, first compound 0.316 µM) 61% | viability, T/C (second compound 0.0316 µM, first compound 1 µM) 61.4% | viability, T/C (second compound 0.0316 µM, first compound 3.16 µM) 67.2% | viability, T/C (second compound 0.0316 µM, first compound 10 µM) 57.4% | viability, T/C [7] 50.2% | viability, T/C [8] 45.5% | viability, T/C (second compound 0.1 µM, first compound 0.316 µM) 45.1% | viability, T/C (second compound 0.1 µM, first compound 1 µM) 44.3% | viability, T/C (second compound 0.1 µM, first compound 3.16 µM) 42.4% | viability, T/C (second compound 0.1 µM, first compound 10 µM) 40.3% | viability, T/C [9] 34.6% | viability, T/C [10] 32.5% | viability, T/C (second compound 0.316 µM, first compound 0.316 µM) 31.8% | viability, T/C (second compound 0.316 µM, first compound 1 µM) 33% | viability, T/C (second compound 0.316 µM, first compound 3.16 µM) 28.9% | viability, T/C (second compound 0.316 µM, first compound 10 µM) 28.6% | viability, T/C [11] 34.3% | viability, T/C [12] 27.8% | viability, T/C (second compound 1 µM, first compound 0.316 µM) 26.7% | viability, T/C (second compound 1 µM, first compound 1 µM) 29.6% | viability, T/C (second compound 1 µM, first compound 3.16 µM) 21.4% | viability, T/C (second compound 1 µM, first compound 10 µM) 24.2%
< 31.6 nM: IC50 (second compound 0.1 µM) | IC50 (second compound 0.316 µM) | IC50 (second compound 1 µM)
> 10000 nM: IC50 (second compound 0.00316 µM) | IC50 (second compound 0.01 µM) | IC50 (second compound 0.0316 µM)
